Patent US10689367B2, “Triazole pyridyl compounds as agonists of the APJ receptor” (AMGEN INC., priority 2016, dated 2020)

target: human APJ receptor (Homo sapiens (Human), UniProt P35414); assay: [35S]GTPγS binding assay on membranes from CHO cells stably expressing human APJ receptor; assay type: biochemical; details: membranes of CHO cells stably expressing human APJ receptor, read-out: Activity hAPJ SPA EC50 IP
Method in brief: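 [35S]GTPγS binding measured on membranes from CHO cells stably expressing FLAG-tagged human APJ, with GDP, MgCl2 and NaCl levels optimized beforehand. Incubation 90 min at RT, imager read-out; EC50 from non-linear regression, averaged over several independent experiments.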

Sequence of human APJ receptor (P35414 whole entry): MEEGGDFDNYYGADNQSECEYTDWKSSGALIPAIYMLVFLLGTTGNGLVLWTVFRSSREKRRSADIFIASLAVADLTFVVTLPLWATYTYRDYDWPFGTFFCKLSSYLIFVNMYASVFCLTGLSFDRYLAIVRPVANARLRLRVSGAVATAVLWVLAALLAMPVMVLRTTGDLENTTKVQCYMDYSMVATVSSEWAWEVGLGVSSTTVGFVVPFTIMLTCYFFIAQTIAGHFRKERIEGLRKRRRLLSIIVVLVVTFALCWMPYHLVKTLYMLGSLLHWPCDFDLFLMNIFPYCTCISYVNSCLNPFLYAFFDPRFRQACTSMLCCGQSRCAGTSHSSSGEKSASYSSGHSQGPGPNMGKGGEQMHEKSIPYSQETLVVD

Row | SMILES | EC50 [nM]
1 | COc1cccc(-c2nnc(NS(=O)(=O)[C@@H](C)[C@H](OC)c3ncc(Cl)cn3)n2C2CCCC2)n1 [Example 183.0, (1R,2S)-1-(5-chloro-2-pyrimidinyl)-N-(4-cyclopentyl-5-(6-methoxy-2-pyridinyl)-4H-1,2,4-triazol-3-yl)-1-methoxy-2-propanesulfonamide] | 4.8
2 | COc1cccc(-c2nnc(NS(=O)(=O)[C@@H](C)[C@H](OC)c3ncc(Cl)cn3)n2C2CCCCC2)n1 [Example 184.0, (1R,2S)-1-(5-chloro-2-pyrimidinyl)-N-(4-cyclohexyl-5-(6-methoxy-2-pyridinyl)-4H-1,2,4-triazol-3-yl)-1-methoxy-2-propanesulfonamide] | 7.3
3 | COc1cccc(-c2nnc(NS(=O)(=O)[C@@H](C)[C@H](OC)c3ncc(Cl)cn3)n2[C@@H]2[C@@H](OC)CCC[C@H]2OC)n1 [Example 185.0, (1R,2S)-1-(5-chloro-2-pyrimidinyl)-N-(4-((1r,2R,6 S)-2,6-dimethoxycyclohexyl)-5-(6-methoxy-2-pyridinyl)-4H-1,2,4-triazol-3-yl)-1-methoxy-2-propanesulfonamide] | 7.2
4 | COc1cccc(-c2nnc(NS(=O)(=O)[C@@H](C)[C@H](OC)c3ncc(Cl)cn3)n2Cc2cnoc2)n1 [Example 186.0, (1R,2S)-1-(5-chloropyrimidin-2-yl)-N-(4-(isoxazol-4-ylmethyl)-5-(6-methoxypyridin-2-yl)-4H-1,2,4-triazol-3-yl)-1-methoxypropane-2-sulfonamide] | 98
5 | COc1cccc(-c2nnc(NS(=O)(=O)[C@@H](C)[C@H](C)c3ncc(Cl)cn3)n2Cc2cnoc2)n1 [Example 187.0, (2S,3R)-3-(5-chloropyrimidin-2-yl)-N-(4-(isoxazol-4-ylmethyl)-5-(6-methoxypyridin-2-yl)-4H-1,2,4-triazol-3-yl)butane-2-sulfonamide] | 650
6 | COc1cccc(-c2nnc(NS(=O)(=O)[C@@H](C)[C@H](OC)c3cnc(C)cn3)n2Cc2cnoc2)n1 [Example 188.0, (1R,2S)-N-(4-(isoxazol-4-ylmethyl)-5-(6-methoxypyridin-2-yl)-4H-1,2,4-triazol-3-yl)-1-methoxy-1-(5-methylpyrazin-2-yl)propane-2-sulfonamide] | 1400
7 | COc1cccc(-c2nnc(NS(=O)(=O)[C@@H](C)[C@H](OC)c3ncc(Cl)cn3)n2Cc2cc(C)no2)n1 [Example 189.0, (1R,2S)-1-(5-chloropyrimidin-2-yl)-1-methoxy-N-(5-(6-methoxypyridin-2-yl)-4-((3-methylisoxazol-5-yl)methyl)-4H-1,2,4-triazol-3-yl)propane-2-sulfonamide] | 18
8 | COc1cccc(-c2nnc(NS(=O)(=O)[C@@H](C)[C@H](C)c3ncc(Cl)cn3)n2Cc2cc(C)no2)n1 [Example 190.0, (2S,3R)-3-(5-chloropyrimidin-2-yl)-N-(5-(6-methoxypyridin-2-yl)-4((3-methylisoxazol-5-yl)methyl)-4H-1,2,4-triazol-3-yl)butane-2-sulfonamide] | 26
9 | COc1cccc(-c2nnc(NS(=O)(=O)[C@@H](C)[C@H](OC)c3cnc(C)cn3)n2Cc2cc(C)no2)n1 [Example 191.0, (1R,2S)-1-methoxy-N-(5-(6-methoxypyridin-2-yl)-4-((3-methylisoxazol-5-yl)methyl)-4H-1,2,4-triazol-3-yl)-1-(5-methylpyrazin-2-yl)propane-2-sulfonamide] | 390
10 | CCc1noc(C)c1Cn1c(NS(=O)(=O)[C@@H](C)[C@H](OC)c2ncc(Cl)cn2)nnc1-c1cccc(OC)n1 [Example 192.0, (1R,2S)-1-(5-chloro-2-pyrimidinyl)-N-(4-((3-ethyl-5-methyl-1,2-oxazol-4-yl)methyl)-5-(6-methoxy-2-pyridinyl)-4H-1,2,4-triazol-3-yl)-1-methoxy-2-propanesulfonamide] | 260
11 | CCc1noc(C)c1Cn1c(NS(=O)(=O)[C@@H](C)[C@H](C)c2ncc(Cl)cn2)nnc1-c1cccc(OC)n1 [Example 193.0, (2S,3R)-3-(5-chloro-2-pyrimidinyl)-N-(4-((3-ethyl-5-methyl-1,2-oxazol-4-yl)methyl)-5-(6-methoxy-2-pyridinyl)-4H-1,2,4-triazol-3-yl)-2-butanesulfonamide] | 430
12 | CCc1noc(C)c1Cn1c(NS(=O)(=O)[C@@H](C)[C@@H](OC(C)C)c2ncc(C)cn2)nnc1-c1cccc(OC)n1 [Example 194.0, (1S,2S)-N-(4-((3-ethyl-5-methyl-1,2-oxazol-4-yl)methyl)-5-(6-methoxy-2-pyridinyl)-4H-1,2,4-triazol-3-yl)-1-(5-methyl-2-pyrimidinyl)-1-(2-propanyloxy)-2-propanesulfonamide] | 56
13 | CCc1noc(C)c1Cn1c(NS(=O)(=O)[C@@H](C)[C@H](OC)c2cnc(C)cn2)nnc1-c1cccc(OC)n1 [Example 195.0, (1R,2S)-N-(4-((3-ethyl-5-methylisoxazol-4-yl)methyl)-5-(6-methoxypyridin-2-yl)-4H-1,2,4-triazol-3-yl)-1-methoxy-1-(5-methylpyrazin-2-yl)propane-2-sulfonamide] | 650
14 | CCc1cc(Cn2c(NS(=O)(=O)[C@@H](C)[C@H](C)c3ncc(Cl)cn3)nnc2-c2cccc(OC)n2)on1 [Example 196.0, (2S,3R)-3-(5-chloropyrimidin-2-yl)-N-(4-((3-ethylisoxazol-5-yl)methyl)-5-(6-methoxypyridin-2-yl)-4H-1,2,4-triazol-3-yl)butane-2-sulfonamide] | 4.8
15 | COc1cc(Cn2c(NS(=O)(=O)[C@@H](C)[C@H](OC)c3ncc(Cl)cn3)nnc2-c2cccc(OC)n2)on1 [Example 197.0, (1R,2S)-1-(5-chloro-2-pyrimidinyl)-1-methoxy-N-(4-((3-methoxy-1,2-oxazol-5-yl)methyl)-5-(6-methoxy-2-pyridinyl)-4H-1,2,4-triazol-3-yl)-2-propanesulfonamide] | 12
16 | COc1cc(Cn2c(NS(=O)(=O)[C@@H](C)[C@H](C)c3ncc(Cl)cn3)nnc2-c2cccc(OC)n2)on1 [Example 198.0, (2S,3R)-3-(5-chloro-2-pyrimidinyl)-N-(4-((3-methoxy-1,2-oxazol-5-yl)methyl)-5-(6-methoxy-2-pyridinyl)-4H-1,2,4-triazol-3-yl)-2-butanesulfonamide] | 24
17 | COc1cc(Cn2c(NS(=O)(=O)[C@@H](C)[C@H](OC)c3cnc(C)cn3)nnc2-c2cccc(OC)n2)on1 [Example 199.0, (1R,2S)-1-methoxy-N-(4-((3-methoxy-1,2-oxazol-5-yl)methyl)-5-(6-methoxy-2-pyridinyl)-4H-1,2,4-triazol-3-yl)-1-(5-methyl-2-pyrazinyl)-2-propanesulfonamide] | 220
18 | COc1cccc(-c2nnc(NS(=O)(=O)[C@@H](C)[C@H](OC)c3cnc(C)cn3)n2Cc2cc(C(F)(F)F)no2)n1 [Example 203.0, (1R,2S)-1-methoxy-N-(5-(6-methoxy-2-pyridinyl)-4-((3-(trifluoromethyl)-1,2-oxazol-5-yl)methyl)-4H-1,2,4-triazol-3-yl)-1-(5-methyl-2-pyrazinyl)-2-propanesulfonamide] | 56
19 | COc1cccc(-c2nnc(NS(=O)(=O)[C@@H](C)[C@H](C)c3ncc(Cl)cn3)n2Cc2cc(C(F)(F)F)no2)n1 [Example 204.0, (2S,3R)-3-(5-chloro-2-pyrimidinyl)-N-(5-(6-methoxy-2-pyridinyl)-4-((3-(trifluoromethyl)-1,2-oxazol-5-yl)methyl)-4H-1,2,4-triazol-3-yl)-2-butanesulfonamide] | 21
20 | COc1cccc(-c2nnc(NS(=O)(=O)[C@@H](C)[C@H](OC)c3ncc(Cl)cn3)n2Cc2cc(C(F)(F)F)no2)n1 [Example 205.0, (1R,2S)-1-(5-chloro-2-pyrimidinyl)-1-methoxy-N-(5-(6-methoxy-2-pyridinyl)-4-((3-(trifluoromethyl)-1,2-oxazol-5-yl)methyl)-4H-1,2,4-triazol-3-yl)-2-propanesulfonamide] | 4.5
21 | COc1cccc(-c2nnc(NS(=O)(=O)[C@@H](C)[C@H](OC)c3cnc(C)cn3)n2Cc2ccno2)n1 [Example 206.0, (1R,2S)-1-methoxy-N-(5-(6-methoxy-2-pyridinyl)-4-(1,2-oxazol-5-ylmethyl)-4H-1,2,4-triazol-3-yl)-1-(5-methyl-2-pyrazinyl)-2-propanesulfonamide] | 210
22 | COc1cccc(-c2nnc(NS(=O)(=O)[C@@H](C)[C@H](C)c3ncc(Cl)cn3)n2Cc2ccno2)n1 [Example 207.0, (2S,3R)-3-(5-chloro-2-pyrimidinyl)-N-(5-(6-methoxy-2-pyridinyl)-4-(1,2-oxazol-5-ylmethyl)-4H-1,2,4-triazol-3-yl)-2-butanesulfonamide] | 30
23 | COc1cccc(-c2nnc(NS(=O)(=O)[C@@H](C)[C@H](C)c3ncc(Cl)cn3)n2Cc2ccon2)n1 [Example 260.0, (2S,3R)-3-(5-chloropyrimidin-2-yl)-N-(4-(isoxazol-3-ylmethyl)-5-(6-methoxypyridin-2-yl)-4H-1,2,4-triazol-3-yl)butane-2-sulfonamide] | 5.1
24 | COc1cccc(-c2nnc(NS(=O)(=O)[C@@H](C)[C@@H](OC(C)C)c3ncc(C)cn3)n2Cc2ccon2)n1 [Example 261.0, (1S,2S)-1-isopropoxy-N-(4-(isoxazol-3-ylmethyl)-5-(6-methoxypyridin-2-yl)-4H-1,2,4-triazol-3-yl)-1-(5-methylpyrimidin-2-yl)propane-2-sulfonamide] | 5.2
25 | CO[C@H](c1ncc(Cl)cn1)[C@H](C)S(=O)(=O)Nc1nnc(-c2cncc(C)c2)n1Cc1ccon1 [Example 262.0, (1R,2S)-1-(5-chloropyrimidin-2-yl)-N-(4-(isoxazol-3-ylmethyl)-5-(5-methylpyridin-3-yl)-4H-1,2,4-triazol-3-yl)-1-methoxypropane-2-sulfonamide] | 200
26 | COc1cccc(-c2nnc(NS(=O)(=O)[C@@H](C)[C@H](OC)c3ncc(Cl)cn3)n2C23CC(C2)C3)n1 [Example 263.0, (1R,2S)—N-(4-(Bicyclo[1.1.1]pentan-1-yl)-5-(6-methoxypyridin-2-yl)-4H-1,2,4-triazol-3-yl)-1-(5-chloropyrimidin-2-yl)-1-methoxypropane-2-sulfonamide] | 49
